Read-outs that look alike come from different tables or passages of the source.
Legend:
Assay in all cases: Michaelis-Menten kinetics, yeast microsomes, HPLC of product […]
[1] = system: T1, HpRPThxa; assay type: biochemical, Hypericum perforatum; conditions: Mg2+, optimum pH 9.0-9.5, 40 °C, read-out: apparent KM
T1 construct: gene RPThxa; full-length, 1173 bp ORF, pESC-URA, yeast INVSc1 microsomes

[2] = system: T2, HsRPThxa; assay type: biochemical, Hypericum sampsonii; conditions: Mg2+, optimum pH 9.0-9.5, 35 °C, read-out: apparent KM
T2 construct: gene RPThxa; full-length, 1176 bp ORF, pESC-URA, yeast INVSc1 microsomes

[3] = system: T3, HsRPThxa-tr; assay type: biochemical, Hypericum sampsonii; conditions: optimum pH 9.0-10.0, 40 °C, read-out: apparent KM
T3 construct: gene RPThxa; lacks the N-terminal 24 residues (transit peptide), yeast microsomes

[4] = formation of hyperixanthone A (C-4 reverse prenylation), co-substrate DMAPP

SMILES	Km ([1]; co-substrate patulone) [µM]	Km ([2]; co-substrate patulone) [µM]	Km ([3]; co-substrate patulone) [µM]	Km [1, 4] [µM]	Km [2, 4] [µM]	Km ([3]; co-substrate DMAPP) [µM]
CC(C)=CCOP(=O)(O)OP(=O)(O)O [DMAPP]	260 ± 22.9	102 ± 6.35	30.9 ± 2.58			
CC(C)=CCC1(CC=C(C)C)C(=O)C(O)=Cc2oc3cc(O)cc(O)c3c(=O)c21 [compound 2, patulone]				46 ± 4.43	52.4 ± 4.16	31.3 ± 4.05

— PMC12172877, “Reverse prenylation in plants by non‐canonical aromatic prenyltransferases” (The Plant Journal, 2025)
